# Tested on: KG-1 cell line
# Assay: KG-1 cell proliferation assay (Cell Titer-Glo)
# Type: cell-based
# Conditions: Homo sapiens; KG-1 cells, 72 hours post-treatment, Cell Titer-Glo luminescence; read-out: FCA Prolif Cell TiterGlo KG-1 72 h (IC50)
# Procedure: The following is an example of an assay that can be used to determine the anti-proliferative activity of Compound A and Compound B in KG-1 cell line (American Type Culture Collection [ATCC]: catalogue number ATCC© CCL-246™) at 72 hours post-treatment. The seeding density for KG-1 can be optimized to ensure assay linearity in 384-well plates.
# Increasing concentrations of test compounds (0.5 nM to 10 μM) was spotted in a 10-point serial dilution fashion (3-fold dilution) in duplicate via an acoustic dispenser (EDC ATS-100) into an empty 384-well plate. The dimethyl sulfoxide (DMSO) concentration was kept constant for a final assay concentration of 0.1% DMSO. Prior to testing, KG-1 cells were grown in RPMI-1640 (Roswell Park Memorial Institute-1640) medium with 10% FBS (fetal bovine serum: HyClone) and expanded in culture flasks to provide sufficient amounts of starting material. Cells were then diluted to 5000 cells per well, in a 50 μL volume and added directly to the compound-spotted 384-well plates. Cells were allowed to grow for 72 hours in 5% CO2 at 37° C. At the time when exposure of cells to compound began (to), initial viable cell number was assessed via Cell Titer-Glo® Luminescent Cell Viability Assay at a 1 vol: 2 vol ratio according to manufacturer's instructions (Promega Corporation, Madison, Wis.) by quantifying the level of luminescence generated by adenosine-5′-triphosphate (ATP) present in viable cells. After 72 hours, cell viability of the treated cells is assessed via Cell Titer-Glo® and read for luminescence.
row,Structure (SMILES),IC50 [nM]
1,O=C1CCC(N2Cc3cc(CNC(=O)C(F)(F)c4ccc(F)cc4)ccc3C2=O)C(=O)N1COP(=O)(O)O (stereo not drawn),100 to 700
2,CC(C)[C@H](N)C(=O)OCN1C(=O)CCC(N2Cc3cc(CNC(=O)C(F)(F)c4ccc(F)cc4)ccc3C2=O)C1=O (stereo partly drawn),10 to 100
3,O=C1CCC(N2Cc3cc(CNC(=O)C(F)(F)c4ccc(Cl)cc4)ccc3C2=O)C(=O)N1COP(=O)(O)O (stereo not drawn),100 to 700

# — patent publication US11365184B2, “Antiproliferative compounds, and their pharmaceutical compositions and uses” (Celgene Corporation, priority 2016, dated 2022)
